Values after ≈ are worked out from the molar mass of the structure shown.

Holding throughout (assay): Minimum inhibitory concentration (cross resistance)
What all share (format): cell-based

In one experiment the test system is E. coli CA8000. The conditions noted are these: Escherichia coli; strain CA8000. An excerpt:
(§1) The minimum inhibitory concentrations (MIC) of the quinolone and fluoroquinolone antibiotics were quantified for different strains and compared among each other. The differential response indicate the measure of resistance and sensitivity. Higher MIC indicate more resistance.

A further experiment has as its system E. coli DH5a. The conditions noted are these: Escherichia coli; strain DH5a.
Description: as §1

The next experiment has as its system E. coli ET8000. The following applies: Escherichia coli; strain ET8000.
Description: as §1

A further experiment relates to E. coli NK5819. The conditions noted are these: Escherichia coli; strain NK5819.
Description: as §1

Another experiment has as its system E. coli mutant CA80010. The following applies: Escherichia coli, read-out: minimum inhibitory concentration (MIC).
Description: (§2) In order to develop an arteether resistant mutants from an arteether sensitive strains a reverse strategy was applied. Quinoline/fluoroquinolone (Q/FQs) resistant strains were developed spontaneously i.e. screening overnight log phase culture of the Quinolone/fluoroquinolone sensitive i.e. arteether resistant strain (E coli CA 8000) on the poison agar plate of the Q/FQs. The Q/FQ resistant mutants which appeared on the poison agar plates were first purified through single colony purification and then checked for their arteether sensitivity. These arteether sensitive mutants on the contrary when checked for their Q/Fqs resistance they show different level of Q/FQs resistance.
as §1

For the next experiment, the system named is E. coli mutant CA80012. The conditions noted are these: Escherichia coli, read-out: minimum inhibitory concentration (MIC).
Description: as §2, §1

For the next experiment, the system named is E. coli mutant CA8001. The conditions noted are these: Escherichia coli; strain CA8001.
Description: as §2, §1

The test system of another experiment is E. coli mutant CA8002. The conditions noted are these: Escherichia coli; strain CA8002.
Description: as §2, §1

The subject of a further experiment is E. coli mutant CA8003. The conditions noted are these: Escherichia coli; strain CA8003.
Description: as §2, §1

The next experiment relates to E. coli mutant CA8005. The conditions noted are these: Escherichia coli; strain CA8005.
Description: as §2, §1

A further experiment concerns E. coli mutant CA8006. The following applies: Escherichia coli; strain CA8006.
Description: as §2, §1

A further experiment relates to E. coli mutant CA8007. The following applies: Escherichia coli; strain CA8007.
Description: as §2, §1

The subject of the next experiment is E. coli mutant CA8009. The conditions noted are these: Escherichia coli; strain CA8009.
Description: as §2, §1

As to `O=C(O)c1cn(C2CC2)c2cc(N3CCNCC3)c(F)cc2c1=O` [Ciprofloxacin], the MIC in the experiment with E. coli CA8000 was less than 0.05 µg/mL; against E. coli DH5a, 0.1 µg/mL (≈ 0.302 µM); against E. coli ET8000, 0.5 µg/mL (≈ 1.51 µM); against E. coli NK5819 it was less than 0.1 µg/mL; in the experiment on E. coli mutant CA80010 it was 0.1 µg/mL (≈ 0.302 µM); in the experiment with E. coli mutant CA80012, 0.1 µg/mL (≈ 0.302 µM). Further, the MIC with E. coli mutant CA8001 was less than 0.1 µg/mL; with E. coli mutant CA8002 it was less than 0.1 µg/mL; with E. coli mutant CA8003, less than 0.1 µg/mL; in the experiment on E. coli mutant CA8005, 0.1 µg/mL (≈ 0.302 µM); with E. coli mutant CA8006, 0.1 µg/mL (≈ 0.302 µM); in the experiment on E. coli mutant CA8007, 0.1 µg/mL (≈ 0.302 µM). In the experiment on E. coli mutant CA8009, this compound came in with an MIC of 0.1 µg/mL (≈ 0.302 µM).

For the compound `C[C@@H]1CN(c2c(F)c(N)c3c(=O)c(C(=O)O)cn(C4CC4)c3c2F)C[C@H](C)N1` [Sparfloxacin], the MIC in the experiment with E. coli CA8000 was less than 0.05 µg/mL; in the experiment on E. coli DH5a, 10 µg/mL (≈ 25.5 µM); in the experiment with E. coli ET8000 it was 20 µg/mL (≈ 51 µM); with E. coli NK5819 it was 10 µg/mL (≈ 25.5 µM); with E. coli mutant CA80010 it was 40 µg/mL (≈ 102 µM); in the experiment on E. coli mutant CA80012 it was 40 µg/mL (≈ 102 µM). For the same compound, the MIC in the experiment with E. coli mutant CA8001 came out at 20 µg/mL (≈ 51 µM); with E. coli mutant CA8002 it was 20 µg/mL (≈ 51 µM); in the experiment on E. coli mutant CA8003, 20 µg/mL (≈ 51 µM); in the experiment with E. coli mutant CA8005, 20 µg/mL (≈ 51 µM); in the experiment on E. coli mutant CA8006 it was 40 µg/mL (≈ 102 µM); against E. coli mutant CA8007 it was 20 µg/mL (≈ 51 µM). The compound also came in with an MIC in the experiment on E. coli mutant CA8009 of 40 µg/mL (≈ 102 µM).

Consider `CCn1cc(C(=O)O)c(=O)c2cc(F)c(N3CCNCC3)cc21` [Norfloxacin], for which the MIC in the experiment on E. coli CA8000 was less than 0.05 µg/mL; with E. coli DH5a, 20 µg/mL (≈ 62.6 µM); in the experiment with E. coli ET8000, 50 µg/mL (≈ 157 µM); in the experiment with E. coli NK5819, 25 µg/mL (≈ 78.3 µM); with E. coli mutant CA80010, 15 µg/mL (≈ 47 µM); with E. coli mutant CA80012 it was 15 µg/mL (≈ 47 µM). For the same compound, the MIC stood at 15 µg/mL (≈ 47 µM) in the experiment with E. coli mutant CA8001; 15 µg/mL (≈ 47 µM) in the experiment with E. coli mutant CA8002; 15 µg/mL (≈ 47 µM) in the experiment on E. coli mutant CA8003; 10 µg/mL (≈ 31.3 µM) with E. coli mutant CA8005; 20 µg/mL (≈ 62.6 µM) against E. coli mutant CA8006; 15 µg/mL (≈ 47 µM) with E. coli mutant CA8007. The compound also yielded an MIC with E. coli mutant CA8009 of 15 µg/mL (≈ 47 µM).

(Values after US7510836B2, “Alpha arteether resistance domain” (priority 2003, dated 2009).)
